Test [1] concerns the target T1, KV1.3 (Homo sapiens, UniProt P22001). The test is described as follows: KV1.3 inhibition, manual voltage-clamp on Xenopus laevis oocytes. To be noted: for inhibition at 10 µM: manual voltage-clamp on Xenopus laevis oocytes; for IC50: KV1.3, manual voltage-clamp, Xenopus laevis oocytes. The class given is cell-based. The procedure:
(§1) Stage V–VI oocytes were isolated by partial ovariectomy from Xenopus laevis frogs (African clawed frogs). […] After anaesthetizing the frogs by a 15-min submersion in 0.1% tricaine methanesulfonate (amino benzoic acid ethyl ester; Merck, Kenilworth, NJ, USA), pH 7.0, the oocytes were collected. The isolated oocytes were then washed with a 1.5 mg/mL collagenase solution for 2 h to remove the follicle layer.
(§2) Ion channels (Kv1.x, Kv2.1, Kv4.2, Kv10.1) were expressed in Xenopus laevis oocytes by linearization of the plasmids and subsequent in vitro transcription using a commercial T7 or SP6 mMESSAGE mMACHINE transcription kit (Ambion, Carlsbad, California, USA). Defolliculated Xenopus oocytes were then injected with 20–50 nL of the cRNA at a concentration of 1 ng/nL using a micro-injector (Drummond Scientific1, Broomall, PA, USA). The oocytes were incubated in a solution containing (in mM): NaCl, 96; KCl, 2; CaCl2, 1.8; MgCl2, 2 and HEPES, 5 (pH 7.5), supplemented with 50 mg/L gentamycin sulfate and 90 mg/L theophylline.
(§3) Two-electrode voltage-clamp recordings were performed at room temperature (18–22 °C) using a Geneclamp 500 amplifier (Molecular Devices, San Jose, CA, USA) and pClamp data acquisition (Axon Instruments, Union City, CA, USA) and using an integrated digital TEVC amplifier controlled by HiClamp, an automated Voltage-Clamp Screening System (Multi Channel Systems MCS GmbH, Reutlingen, Germany). Whole-cell currents from oocytes were recorded 1–4 days after injection. The bath solution composition was ND96 (in mM): NaCl, 96; KCl, 2; CaCl2, 1.8; MgCl2, 2 and HEPES, 5 (pH 7.5). Voltage and current electrodes were filled with a 3 M solution of KCl in H2O. […] The elicited Kv1.x, Kv2.1, Kv4.2 and Kv10.1 currents were filtered at 0.5 kHz and sampled at 2 kHz using a four-pole low-pass Bessel filter. Leak subtraction was performed using a P/4 protocol.
(§4) For the electrophysiological analysis of the compounds, a number of protocols were applied from a holding potential of −90 mV. Currents for Kv1.x, Kv2.1, Kv4.2 and Kv10.1 were evoked by 1 s depolarizing pulses either to 0 mV or to a range of voltage steps between −80 mV and +40 mV. For the analysis of the data, only the inhibition at the 0 mV step was used. The concentration dependency of all compounds was assessed by measuring the current inhibition in the presence of increasing compound concentrations. […] From this stock solution, adequate dilutions with a maximum of 0.5% DMSO were made for testing.
(§5) All electrophysiological data (Figure S1) are presented as means ± S.E.M of n ≥ three independent experiments unless otherwise indicated. […] The Dunnett test and one-way ANOVA were performed to calculate the significance of the induced inhibition compared to the control.

For test [2], the target named is T1, KV1.3. The test is described as follows: KV1.3 inhibition, HiClamp on Xenopus laevis oocytes. The class given is cell-based. To be noted: Xenopus laevis oocytes (marked * in Table 2). The procedure: as §1, §2, §3, §4, §5
The subject of a further test is Panc-1 cell line. The arrangement: method as in PMID 29034212. To be noted: Panc-1 cell line; read-out: EC50 decrease of cell survival; cited from earlier work.
Another test deals with Colo-357. The arrangement: method as in PMID 29034212. The conditions noted are these: read-out: EC50 cell death; cited from earlier work.

Broadly, the inhibition is the share of the control response that was lost under treatment. A lower inhibition goes with a response near the control. For orientation: IC50 means the point on the concentration scale where inhibition reaches its midpoint. The term EC50 denotes the midpoint of the concentration-response curve.

T1 sequence (P22001 whole entry): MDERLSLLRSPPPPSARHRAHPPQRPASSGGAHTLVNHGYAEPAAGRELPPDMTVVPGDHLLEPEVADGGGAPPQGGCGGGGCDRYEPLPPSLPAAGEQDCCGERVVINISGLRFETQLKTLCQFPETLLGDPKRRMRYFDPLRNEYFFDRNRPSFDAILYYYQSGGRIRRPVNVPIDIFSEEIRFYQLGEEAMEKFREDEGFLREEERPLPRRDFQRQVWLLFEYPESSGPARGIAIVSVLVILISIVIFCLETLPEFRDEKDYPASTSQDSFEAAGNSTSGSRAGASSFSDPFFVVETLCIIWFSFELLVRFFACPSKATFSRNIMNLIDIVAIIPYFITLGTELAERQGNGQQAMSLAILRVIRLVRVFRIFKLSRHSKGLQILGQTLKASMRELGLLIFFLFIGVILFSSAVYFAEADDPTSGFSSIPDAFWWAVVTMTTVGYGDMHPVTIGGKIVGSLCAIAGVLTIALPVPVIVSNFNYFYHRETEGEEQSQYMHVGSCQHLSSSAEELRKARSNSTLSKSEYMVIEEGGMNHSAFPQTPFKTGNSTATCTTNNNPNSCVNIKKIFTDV

With `COc1ccc(C2(CNC(=O)c3ccccc3OC)CCCC2)cc1` [Compound 6], the inhibition at 10 µM at KV1.3 [1] is under 10%. On the same count and under the same terms, to `COc1ccccc1C(=O)NCC1(c2ccccc2OC)CCCC1` [Compound 7] belongs under 10%. In the case of `COc1ccc(C2(CNC(=O)c3ccccc3OC)CCCC2)cc1OC` [Compound 8], the inhibition at 10 µM against KV1.3 [1] is under 10%. At KV1.3 [1], `COc1ccccc1C(=O)NCC1(c2ccc3c(c2)OCO3)CCCC1` [Compound 9] had an inhibition at 10 µM of under 10%. On the same count and under the same terms, for `COc1ccccc1C(=O)NCC1(c2ccccc2)CCCC1` [Compound 10] the value was under 10%; for `COc1cccc(C2(CNC(=O)c3ccccc3OC)CCCC2)c1` [Compound 11], 18 ± 3%. Same read-out and setting: to `COc1ccccc1C(=O)NCC1(c2cccc(C)c2)CCCC1` [Compound 12] belongs 16 ± 4%; to `COc1ccccc1C(=O)NCC1(c2cccs2)CCCC1` [Compound 13], 57 ± 9%. Same read-out and setting: to `COc1ccc(C2(CNC(=O)c3ccccc3OC)CCCCC2)cc1OC` [Compound 15] belongs under 10%; to `COc1ccc(C2(CNC(=O)c3ccccc3OC)CCCCC2)cc1` [Compound 16], under 10%.

Consider `COc1ccccc1C(=O)NCC1(c2ccc(C(F)(F)F)cc2)CCCCC1` [Compound 17], for which the inhibition at 10 µM at KV1.3 [1] is under 10%. The compound `COc1ccccc1C(=O)NCC1(c2ccccc2OC)CCCCC1` [Compound 18] had an inhibition at 10 µM on KV1.3 [1] of under 10%.

As to `COc1cccc(C2(CNC(=O)c3ccccc3OC)CCCCC2)c1` [Compound 19], at KV1.3 [1], the inhibition at 10 µM worked out at 12 ± 2%. Take `COc1ccccc1C(=O)NCC1(c2cccc(C)c2)CCCCC1` [Compound 20]: the inhibition at 10 µM on KV1.3 [1] was found to be 27 ± 2%. Still for that read-out and setting: for `COc1ccccc1C(=O)NCC1(c2ccsc2)CCCCC1` [Compound 21] the value was 30 ± 8%. In turn, `COc1ccccc1C(=O)NCC1(c2ccc(C(F)(F)F)cc2)CCOCC1` [Compound 22] displayed an inhibition at 10 µM against KV1.3 [1] of under 10%.

Consider `COc1ccc(C2(CNC(=O)c3ccccc3OC)CCOCC2)cc1OC` [Compound 23], for which, at KV1.3 [1], the inhibition at 10 µM was under 10%. Regarding `COc1ccc(C2(CNC(=O)c3ccccc3OC)CCOCC2)cc1` [Compound 24], testing at 10 µM against KV1.3 [1] gave an inhibition of 59 ± 5%. The same measure, in the same setting: to `COc1ccccc1C(=O)NCC1(c2ccc(C)cc2)CCOCC1` [Compound 25] belongs 52 ± 8%; to `COc1ccccc1C(=O)NCC1(c2ccc3c(c2)OCO3)CCOCC1` [Compound 26], 60 ± 9%; to `COc1ccccc1C(=O)NCC1(c2ccccc2OC)CCOCC1` [Compound 27], 78 ± 4%. On KV1.3 [1], `COc1cccc(C2(CNC(=O)c3ccccc3OC)CCOCC2)c1` [Compound 28] showed an inhibition at 10 µM of 88 ± 4% and an IC50 of 5.75 µM. As for `COc1ccccc1C(=O)NCC1(c2cccc(C)c2)CCOCC1` [Compound 29], on KV1.3 [1], the inhibition at 10 µM is 87 ± 4% and the IC50 was 4.3 µM. For `COc1cccc(OC)c1C(=O)NCC1(c2ccccc2)CCOCC1` [Compound 30], the inhibition at 10 µM against KV1.3 [1] is under 10%.

On KV1.3 [1], `O=C(NCC1(c2ccccc2)CCOCC1)c1ccsc1` [Compound 31] had an inhibition at 10 µM of 11 ± 4%. `O=C(NCC1(c2ccccc2)CCOCC1)c1ccoc1` [Compound 32] showed an inhibition at 10 µM on KV1.3 [1] of 27 ± 6%.

In turn, `COc1ccccc1CC(=O)NCC1(c2ccccc2)CCOCC1` [Compound 33] yielded an inhibition at 10 µM at KV1.3 [1] of 38 ± 5%. In the case of `COc1ccc(C)cc1C(=O)NCC1(c2ccccc2)CCOCC1` [Compound 34], 10 µM produced 47 ± 1% inhibition against KV1.3 [1]. The same measure, in the same setting: for `CCOc1ccccc1C(=O)NCC1(c2ccccc2)CCOCC1` [Compound 35] the value was 74 ± 9%. Consider `COc1cc(C)ccc1C(=O)NCC1(c2ccccc2)CCOCC1` [Compound 36], for which the inhibition at 10 µM at KV1.3 [1] stood at 89 ± 4%. The compound further gave an IC50 against KV1.3 [2] of 1.65 µM. Consider `COc1ccccc1C(=O)NCC1(c2csc3ccccc23)CCOCC1` [Compound 38], for which the inhibition at 10 µM against KV1.3 [1] was under 10%. Still for that read-out and setting: to `COc1ccc(-c2csc(C3(CNC(=O)c4ccccc4OC)CCOCC3)n2)cc1` [Compound 39] belongs under 10%; to `COc1ccccc1C(=O)NCC1(c2nc(-c3ccccc3)cs2)CCOCC1` [Compound 40], under 10%; to `COc1ccccc1C(=O)NCC1(c2csc(C)n2)CCOCC1` [Compound 41], 41 ± 10%. On the same count and under the same terms, for `COc1ccccc1C(=O)NCC1(c2cscn2)CCOCC1` [Compound 42] the value was 54 ± 10%; for `COc1cccc(OC)c1C(=O)NCC1(c2ccsc2)CCOCC1` [Compound 45], under 10%. The same measure, in the same setting: to `O=C(NCC1(c2ccsc2)CCOCC1)c1ccoc1` [Compound 46] belongs 21 ± 6%; to `CCOc1ccccc1C(=O)NCC1(c2ccsc2)CCOCC1` [Compound 47], 35 ± 8%; to `COc1ccc(C)cc1C(=O)NCC1(c2ccsc2)CCOCC1` [Compound 48], 42 ± 6%.

Take `COc1ccccc1CC(=O)NCC1(c2ccsc2)CCOCC1` [Compound 49]: 10 µM produced 43 ± 1% inhibition on KV1.3 [1]. Still for that read-out and setting: for `COc1ccc(F)cc1C(=O)NCC1(c2ccsc2)CCOCC1` [Compound 50] the value was 47 ± 9%. On to `COc1cc(C)ccc1C(=O)NCC1(c2ccsc2)CCOCC1` [Compound 51], for which, on KV1.3 [1], the inhibition at 10 µM stood at 82 ± 1%. The IC50 against KV1.3 [2] is 2.92 µM. Consider `O=c1ccc2c(OCCCCOc3ccc(CCC[P+](c4ccccc4)(c4ccccc4)c4ccccc4)cc3)c3ccoc3cc2o1` [PAPTP], for which the EC50 with Panc-1 cell line is about 3 µM; in the test with Colo-357, 3.7 µM.

Regarding `O=C(NCCC[P+](c1ccccc1)(c1ccccc1)c1ccccc1)Oc1ccc(OCCCCOc2c3ccoc3cc3oc(=O)ccc23)cc1` [PCARBTP], the EC50 is about 6 µM in the test on Panc-1 cell line and 2 µM in the test with Colo-357.
